Patent US6514911B1, “Substituted oxadiazines useful as pesticides” (Uniroyal Chemical Company, Inc., priority 2002, dated 2003)

Columns and labels:
[1] = system: green foxtail (Setaria virdis (L.) Beauv.) (GF); assay: Preemergence herbicide test, soil drench, green foxtail; type: in vivo; conditions: 10 lbs/A (11.2 kg/ha) soil drench, two weeks after treatment, vs untreated checks; for pest or weed control at 11208.5 g/ha: Setaria, 336 h, read-out: Percent Weed Control GF
Method: To illustrate the effectiveness of the previously described substituted oxadiazines of this invention as preemergence herbicides, 300 mg of the chemical was dissolved in a composition comprising 10 mL acetone to which 30 mg of tile emulsifying agent, ethoxylated sorbitan monolaurate, was added. The solution was diluted to 100 mL with distilled water. Ten milliliters of this 3000 ppm solution was diluted to 250 ppm with distilled water. The chemical was applied at the rate of 10 pounds/acre (11.2 kg/ha) by drenchings 46 mL of the 250 ppm solution on the surface of soil in 41⁄2 inch (11.25 cm) plastic pots wherein seeds of the following weeds had been planted: green foxtail (Setaria […].) Beauv.) (GF). The percent control of the weeds compared to untreated checks was determined two weeks after treatment. TABLE 1 summarizes the results achieved with compounds formulated as indicated above, and the data clearly indicate the good to excellent herbicidal efficacy of compositions of this invention.

[2] = system: barnyardgrass (Echinochloa crus-galli (L.) Beauv.) (BG); assay: Preemergence herbicide test, soil drench, barnyardgrass; type: in vivo; conditions: 10 lbs/A (11.2 kg/ha) soil drench, two weeks after treatment, vs untreated checks; for pest or weed control at 11208.5 g/ha: Echinochloa crus-galli, 336 h, read-out: Percent Weed Control BG
Method: (§1) To illustrate the effectiveness of the previously described substituted oxadiazines of this invention as preemergence herbicides, 300 mg of the chemical was dissolved in a composition comprising 10 mL acetone to which 30 mg of tile emulsifying agent, ethoxylated sorbitan monolaurate, was added. The solution was diluted to 100 mL with distilled water. Ten milliliters of this 3000 ppm solution was diluted to 250 ppm with distilled water. The chemical was applied at the rate of 10 pounds/acre (11.2 kg/ha) by drenchings 46 mL of the 250 ppm solution on the surface of soil in 4½ inch (11.25 cm) plastic pots wherein seeds of the following weeds had been planted: barnyardgrass (Echinochloa crus-galli (L.) Beauv.) (BG), and The percent control of the weeds compared to untreated checks was determined two weeks after treatment. TABLE 1 summarizes the results achieved with compounds formulated as indicated above, and the data clearly indicate the good to excellent herbicidal efficacy of compositions of this invention.

insects = assay: Insecticidal properties (no method given); conditions: statement in words, no test details
[3] = system: tall morningglory (Ipomoea purpurea (L.) Roth) (TM); assay: Preemergence herbicide test, soil drench, tall morningglory; type: in vivo; conditions: 10 lbs/A (11.2 kg/ha) soil drench, two weeks after treatment, vs untreated checks; for pest or weed control at 11208.5 g/ha: Ipomoea, 336 h, read-out: Percent Weed Control TM
Method: as §1, with “tall morningglory (Ipomoea purpurea” for “barnyardgrass (Echinochloa crus-galli”, “Roth) (TM),” for “Beauv.) (BG), and”

[4] = system: velvetleaf (Abutilon theophrasti Medik.) (VL); assay: Preemergence herbicide test, soil drench, velvetleaf; type: in vivo; conditions: 10 lbs/A (11.2 kg/ha) soil drench, two weeks after treatment, vs untreated checks; for pest or weed control at 11208.5 g/ha: Abutilon theophrasti, 336 h, read-out: Percent Weed Control VL
Method: as §1, with “velvetleaf (Abutilon theophrasti Medik.) (VL),” for “barnyardgrass (Echinochloa crus-galli (L.) Beauv.) (BG), and”

[5] = system: jimsonweed (Datura stramonium L.) (JW); assay: Preemergence herbicide test, soil drench, jimsonweed; type: in vivo; conditions: 10 lbs/A (11.2 kg/ha) soil drench, two weeks after treatment, vs untreated checks
Method: as §1, with “jimsonweed (Datura stramonium L.) (JW),” for “barnyardgrass (Echinochloa crus-galli (L.) Beauv.) (BG), and”

[6] = system: switchgrass (Panicum virgahim L.) (SG); assay: Preemergence herbicide test, soil drench, switchgrass; type: in vivo; conditions: 10 lbs/A (11.2 kg/ha) soil drench, two weeks after treatment, vs untreated checks; for pest or weed control at 11208.5 g/ha: Panicum, 336 h, read-out: Percent Weed Control SG
Method: (§2) To illustrate the effectiveness of the previously described substituted oxadiazines of this invention as preemergence herbicides, 300 mg of the chemical was dissolved in a composition comprising 10 mL acetone to which 30 mg of tile emulsifying agent, ethoxylated sorbitan monolaurate, was added. The solution was diluted to 100 mL with distilled water. Ten milliliters of this 3000 ppm solution was diluted to 250 ppm with distilled water. The chemical was applied at the rate of 10 pounds/acre (11.2 kg/ha) by drenchings 46 mL of the 250 ppm solution on the surface of soil in 4½ inch (11.25 cm) plastic pots wherein seeds of the following weeds had been planted:
switchgrass (Panicum virgahim L.) (SG),
(§3) The percent control of the weeds compared to untreated checks was determined two weeks after treatment. TABLE 1 summarizes the results achieved with compounds formulated as indicated above, and the data clearly indicate the good to excellent herbicidal efficacy of compositions of this invention.

[7] = system: prickly sida (Sida spinosa L.) (PS); assay: Preemergence herbicide test, soil drench, prickly sida; type: in vivo; conditions: Sida spinosa, 336 h, 10 lbs/A (11.2 kg/ha) soil drench, two weeks after treatment, vs untreated checks, read-out: Percent Weed Control PS
Method: as §2, with “The chemical was applied at the rate of 10 pounds/acre (11.2 kg/ha) by drenchings 46 mL of the 250 ppm solution on the surface of soil in 4½ inch (11.25 cm) plastic pots wherein seeds of the following weeds had been planted:” left out
prickly sida (Sida spinosa L.) (PS),
as §3

## FC(F)(F)C(F)(F)C(F)(F)C1=NC(C(F)(F)F)(C(F)(F)F)N=C(c2cccc(Cl)c2)O1 [Compound 26, 2-(3-chlorophenyl)-6-(heptafluoropropyl)-4,4-bis(trifluoromethyl)-4H-1,3,5-oxadiazine]
[1]
  pest or weed control at 11208.5 g/ha: 100%
[2]
  pest or weed control at 11208.5 g/ha: 100%
insects
  insecticidal properties: found to have insecticidal properties
[3]
  pest or weed control at 11208.5 g/ha: 100%
[4]
  pest or weed control at 11208.5 g/ha: 100%
[5]
  Percent Weed Control JW: 100%
[6]
  pest or weed control at 11208.5 g/ha: 100%

## FC(F)(F)Oc1ccc(C2=NC(C(F)(F)F)(C(F)(F)F)N=C(C(F)(F)C(F)(F)F)O2)cc1 [Compound 16, 2-(pentafluoroethyl)-6-{(4-trifluoromethoxy)phenyl}-4,4-bis(trifluoromethyl)-4H-1,3,5-oxadiazine]
[1]
  Percent Weed Control GF: 100%
[2]
  Percent Weed Control BG: 100%
insects
  insecticidal properties: found to have insecticidal properties
[3]
  Percent Weed Control TM: 100%
[4]
  Percent Weed Control VL: 100%
[5]
  Percent Weed Control JW: 100%
[6]
  Percent Weed Control SG: 100%

## FC(F)(F)c1cccc(C2=NC(C(F)(F)F)(C(F)(F)F)N=C(C(F)(F)C(F)(F)F)O2)c1 [Compound 14, 2-(pentafluoroethyl)-4,4-bis(trifluoromethyl)-6-{(3-trifluoromethyl)phenyl}-4H-1,3,5-oxadiazine]
[1]
  Percent Weed Control GF: 100%
[2]
  Percent Weed Control BG: 100%
insects
  insecticidal properties: found to have insecticidal properties
[3]
  Percent Weed Control TM: 100%
[4]
  Percent Weed Control VL: 100%
[5]
  Percent Weed Control JW: 100%
[6]
  Percent Weed Control SG: 100%

## Cc1cccc(C2=NC(C(F)(F)F)(C(F)(F)F)N=C(C(F)(F)C(F)(F)F)O2)c1 [Compound 22, 2-(3-methylphenyl)-6-(pentafluoroethyl)-4,4-bis(trifluoromethyl)-4H-1,3,5-oxadiazine]
[1]
  pest or weed control at 11208.5 g/ha: 50%
[2]
  pest or weed control at 11208.5 g/ha: 0%
[3]
  pest or weed control at 11208.5 g/ha: 0%
[4]
  pest or weed control at 11208.5 g/ha: 100%
[5]
  Percent Weed Control JW: 100%
[6]
  pest or weed control at 11208.5 g/ha: 0%

## FC(F)(F)C(F)(F)C(F)(F)C1=NC(C(F)(F)F)(C(F)(F)F)N=C(c2ccccc2)O1 [2-(heptafluoropropyl)-6-phenyl-4,4-bis(trifluoromethyl)-4H-1,3,5-oxadiazine, reference compound]
[1]
  pest or weed control at 11208.5 g/ha: 0%
[2]
  pest or weed control at 11208.5 g/ha: 0%
[7]
  pest or weed control at 11208.5 g/ha: 0%
[3]
  pest or weed control at 11208.5 g/ha: 0%
[4]
  pest or weed control at 11208.5 g/ha: 0%
[5]
  Percent Weed Control JW: 0%
[6]
  pest or weed control at 11208.5 g/ha: 0%

## COc1cccc(C2=NC(C(F)(F)F)(C(F)(F)F)N=C(C(F)(F)C(F)(F)F)O2)c1 [Compound 23, 2-(3-methoxyphenyl)-6-(pentafluoroethyl)-4,4-bis(trifluoromethyl)-4H-1,3,5-oxadiazine]
[1]
  pest or weed control at 11208.5 g/ha: 50%
[2]
  pest or weed control at 11208.5 g/ha: 0%
[3]
  pest or weed control at 11208.5 g/ha: 100%
[4]
  pest or weed control at 11208.5 g/ha: 100%
[5]
  Percent Weed Control JW: 100%
[6]
  pest or weed control at 11208.5 g/ha: 50%
